Where no end group is shown, it is not given here.
target: NMDA receptor (spermine-stimulated [^3H]MK-801 binding); conditions: not given

Which IC50 does the source give for “(A^7,10)1-12: Con G derivative, A at 7 and 10, residues 13-17 deleted (GEEELQANQALI; ends and bridges not checked; UniProt P07231 81-97, looked up, variant E7A E10A del13-17)” here?
The IC50 was 300 nM.

For “(A^7,10)1-13: Con G derivative, A at 7 and 10, residues 14-17 deleted (GEEELQANQALIR; ends and bridges not checked; UniProt P07231 81-97, looked up, variant E7A E10A del14-17)”, which IC50 is on record?
Its IC50 is 253 nM.

For “(A^7,10,14)1-14: Con G derivative, A at 7, 10, 14, residues 15-17 deleted (GEEELQANQALIRA; ends and bridges not checked; UniProt P07231 81-97, looked up, variant E7A E10A E14A del15-17)”, which IC50 is on record?
The IC50 was 232 nM.

Which IC50 does the source give for “(A^7,10,14)1-15: Con G derivative, A at 7, 10, 14, residues 16-17 deleted (GEEELQANQALIRAK; ends and bridges not checked; UniProt P07231 81-97, looked up, variant E7A E10A E14A del16-17)” here?
The IC50 was 34 nM.

For “(A^7,10,14)1-16: Con G derivative, A at 7, 10, 14, residue 17 deleted (GEEELQANQALIRAKS; ends and bridges not checked; UniProt P07231 81-97, looked up, variant E7A E10A E14A del17-17)”, which IC50 is on record?
The IC50 was 37 nM.

Which “IC50 (μM)” value does the source give for “(A^7,10,14)2-17: Con G derivative, A at 7, 10, 14, residue 1 deleted (EEELQANQALIRAKSN; ends and bridges not checked; UniProt P07231 81-97, looked up, variant del1-1 E7A E10A E14A)” here?
Its value is “inactive”.

For “(A^7,10,14)3-17: Con G derivative, A at 7, 10, 14, residues 1-2 deleted (EELQANQALIRAKSN; ends and bridges not checked; UniProt P07231 81-97, looked up, variant del1-2 E7A E10A E14A)”, which “IC50 (μM)” value is on record?
The value was “inactive”.

Which “IC50 (μM)” value does the source give for “(A^7,10,14)4-17: Con G derivative, A at 7, 10, 14, residues 1-3 deleted (ELQANQALIRAKSN; ends and bridges not checked; UniProt P07231 81-97, looked up, variant del1-3 E7A E10A E14A)” here?
Its value is “inactive”.

Which “IC50 (μM)” value does the source give for “(A^7,10,14)5-17: Con G derivative, A at 7, 10, 14, residues 1-4 deleted (LQANQALIRAKSN; ends and bridges not checked; UniProt P07231 81-97, looked up, variant del1-4 E7A E10A E14A)” here?
Its value is “inactive”.

For “(A^7,10,14)6-17: Con G derivative, A at 7, 10, 14, residues 1-5 deleted (QANQALIRAKSN; ends and bridges not checked; UniProt P07231 81-97, looked up, variant del1-5 E7A E10A E14A)”, which “IC50 (μM)” value is on record?
The value was “inactive”.

For “A^7,10,14: Con G derivative, A at positions 7, 10 and 14 (GEEELQANQALIRAKSN; ends and bridges not checked; UniProt P07231 81-97, looked up, variant E7A E10A E14A)”, which IC50 is on record?
Its IC50 is 88 nM.

For “A^7,Y^10: Con G derivative, A at position 7 and Y at position 10 (GEEELQANQYLIREKSN; ends and bridges not checked; UniProt P07231 81-97, looked up, variant E7A E10Y)”, which IC50 is on record?
Its IC50 is 79 nM.

system: not given; conditions: mouse, tissue homogenate

For `CC[C@H](C)[C@H](NC(=O)[C@H](CC(N)=O)NC(=O)[C@H](CCC(=O)O)NC(=O)[C@H](CCCNC(=N)N)NC(=O)[C@H](C)NC(=O)[C@H](CC(C)C)NC(=O)[C@H](CCC(=O)O)NC(=O)[C@H](C)NC(=O)[C@H](C)NC(=O)[C@H](CCSC)NC(=O)[C@H](CCCCN)NC(=O)[C@H](C)NC(=O)[C@@H](NC(=O)[C@H](CCC(=O)O)NC(=O)[C@H](CCC(=O)O)NC(=O)[C@H](CCC(=O)O)NC(=O)CN)C(C)C)C(=O)N[C@@H](C)C(=O)N[C@@H](CCCCN)C(=O)NCC(=O)N[C@H]1CSSC[C@@H](C(=O)N[C@@H](Cc2ccc(O)cc2)C(=O)N2CCC[C@H]2C(=O)O)NC(=O)[C@H](CC(N)=O)NC(=O)[C@H](C(C)C)NC(=O)[C@H](CCCCN)NC1=O` [ECon R], which half-life is on record?
Its half-life is 2.4 min.

Reference: patent US6399574B1 (priority 1997, dated 2002)
